Results reported in paper PMC6424464, “Multiple functional neurosteroid binding sites on GABAA receptors” (PLoS Biology, 2019).

Assays:
[1] = target: T1, GABAA receptor β3 subunit (Homo sapiens, UniProt P28472); assay: biochemical
T1 construct: gene GABRB3

[2] = target: T2, GABAA receptor α1 subunit (Homo sapiens, UniProt P14867); assay: biochemical; parameters: gene GABRA1
T2 sequence (P14867 28-456): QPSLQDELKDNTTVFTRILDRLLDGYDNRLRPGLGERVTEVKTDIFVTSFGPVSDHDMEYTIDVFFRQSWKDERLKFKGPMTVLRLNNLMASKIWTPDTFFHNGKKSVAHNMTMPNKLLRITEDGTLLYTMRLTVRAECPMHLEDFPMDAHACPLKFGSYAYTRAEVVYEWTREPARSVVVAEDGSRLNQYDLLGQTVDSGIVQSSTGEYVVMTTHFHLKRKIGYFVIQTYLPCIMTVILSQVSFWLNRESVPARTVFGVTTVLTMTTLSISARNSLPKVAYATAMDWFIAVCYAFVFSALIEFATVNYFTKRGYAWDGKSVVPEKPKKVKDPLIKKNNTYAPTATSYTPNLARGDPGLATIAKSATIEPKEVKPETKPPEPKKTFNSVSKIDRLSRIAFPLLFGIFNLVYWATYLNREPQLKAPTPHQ
T2 sequence (P28472 26-473 partner): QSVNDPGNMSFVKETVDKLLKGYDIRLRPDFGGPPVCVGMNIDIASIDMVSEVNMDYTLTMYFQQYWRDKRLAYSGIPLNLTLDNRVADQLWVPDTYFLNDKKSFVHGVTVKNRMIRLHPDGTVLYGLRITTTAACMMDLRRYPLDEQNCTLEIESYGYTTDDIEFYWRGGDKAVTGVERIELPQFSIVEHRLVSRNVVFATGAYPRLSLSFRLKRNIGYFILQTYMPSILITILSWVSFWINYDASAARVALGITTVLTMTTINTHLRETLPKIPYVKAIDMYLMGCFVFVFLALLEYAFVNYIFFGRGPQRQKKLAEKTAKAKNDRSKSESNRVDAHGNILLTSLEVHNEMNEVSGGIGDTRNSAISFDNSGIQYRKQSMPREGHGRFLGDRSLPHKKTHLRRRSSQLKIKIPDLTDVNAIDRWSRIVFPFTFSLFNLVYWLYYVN

[3] = target: T3, GABAA receptor β3 subunit (Homo sapiens, UniProt P14867+P28472); assay: photoaffinity labeling with middle-down MS, competed by allopregnanolone; EC50 from [3H]muscimol binding enhancement (whole α[…]β[…] receptor)
T3 construct: gene GABRB3; α1His-FLAG β3 receptor in HEK-293 cell membranes; adduct in TM3 peptide 280-313; with GABAA receptor α1 subunit (GABRA1)
T3 sequence (P28472 26-473): T2 sequence (P28472 26-473 partner)
T3 sequence (P14867 28-456): T2 sequence (P14867 28-456)

[4] = target: T2, GABAA receptor α1 subunit; assay: photoaffinity labeling ([…]) with middle-down MS; EC50 from [3H]muscimol binding enhancement (whole α[…]β[…] receptor); parameters: gene GABRA1; α1His-FLAG β3 receptor in HEK-293 cell membranes; adduct in TM4 peptide 398-423; with GABAA receptor β3 subunit (GABRB3)
[5] = target: T4, α1β3 GABAA receptor (β3 subunit) (Homo sapiens, UniProt P14867+P28472); assay: competition of KK123, KK200 and KK202 photolabeling on β[…]; [3H]muscimol binding enhancement; parameters: gene GABRB3; α1His-FLAG β3 receptor in HEK-293 cell membranes; with GABAA receptor α1 subunit (GABRA1)
T4 sequence (P28472 26-473): T2 sequence (P28472 26-473 partner)
T4 sequence (P14867 28-456): T2 sequence (P14867 28-456)

[6] = target: T2, GABAA receptor α1 subunit; assay: competition of KK123 photolabeling at α1-Y415; [3H]muscimol binding enhancement; oocyte electrophysiology with site mutants; parameters: gene GABRA1; α1His-FLAG β3 receptor in HEK-293 cell membranes; with GABAA receptor β3 subunit (GABRB3)
[7] = target: T4, α1β3 GABAA receptor (β3 subunit); assay: two-electrode voltage clamp, potentiation and direct activation; type: cell-based; parameters: gene GABRB3; α1β3 receptors expressed in X. laevis oocytes; with GABAA receptor α1 subunit (GABRA1)
[8] = target: T5, GABAA receptor β3 subunit (Homo sapiens, UniProt P28472); assay: photoaffinity labeling with middle-down MS, competed by allopregnanolone; EC50 from [3H]muscimol binding enhancement (whole α[…]β[…] receptor)
T5 construct: gene GABRB3; α1His-FLAG β3 receptor in HEK-293 cell membranes; adduct in TM3 peptide 278-313; with GABAA receptor α1 subunit (GABRA1)
T5 sequence (P28472 26-473): T2 sequence (P28472 26-473 partner)
T5 sequence (P14867 28-456 partner): T2 sequence (P14867 28-456)

C#CCCO[C@H]1C[C@]2(C)C3CC[C@@]4(C)C(CC[C@@H]4OC)C3CC3(N=N3)C2C[C@@H]1O (some centres unmarked) [KK123] gave an EC50 [1] of 1600 ± 200 nM and an EC50 [2] of 1600 ± 200 nM.

With C[C@]12CC[C@@H](O)CC1CCC1C2CC[C@@]2(C)C1CC[C@@H]2OCc1ccc(C2(C(F)(F)F)N=N2)cc1 (some centres unmarked) [KK200] the EC50 [3] was 540 ± 180 nM and the EC50 [4] was 540 ± 180 nM.

CC(=O)[C@H]1CC[C@H]2[C@@H]3CC[C@H]4C[C@H](O)CC[C@]4(C)[C@H]3CC[C@]12C [AlloP, 3α-hydroxy-5α-pregnan-20-one] gave an EC50 [5] of 3900 ± 5600 nM and an EC50 [6] of 3900 ± 5600 nM.

CC(C)c1cccc(C(C)C)c1O [propofol] was tested, and the “two-electrode voltage clamp, potentiation and direct activation” value [7] was “Propofol action was not different between the mutant and wild-type receptors, indicating a selective effect on neurosteroid action”.

C#CCO[C@H]1CCC2C3CCC4C[C@H](OCc5ccc(C6(C(F)(F)F)N=N6)cc5)CC[C@]4(C)C3CC[C@@]21C (some centres unmarked) [KK202] was tested, and the EC50 [8] was 1100 ± 270 nM.
